From paper PMC4657098, “A Review of the Updated Pharmacophore for the Alpha 5 GABA(A) Benzodiazepine Receptor Model” (International Journal of Medicinal Chemistry, 2015)
Entries after “also recorded” stand apart in the source; their conditions may differ.

What was measured:
[1] = molecular target: T1, DAT (Homo sapiens, UniProt Q01959); test: PDSP receptor binding, DAT; details: PDSP primary screen at 10 µM
T1 construct: purchased NIMH PDSP (Psychoactive Drug Screening Program, Roth lab, Case Western Reserve)

[2] = molecular target: T2, DOR (Homo sapiens, UniProt P41143); test: PDSP receptor binding, DOR; details: PDSP primary screen at 10 µM
T2 construct: purchased NIMH PDSP (Psychoactive Drug Screening Program, Roth lab, Case Western Reserve)

[3] = molecular target: T3, H1 (Homo sapiens, UniProt P35367); test: PDSP receptor binding, H1; details: PDSP primary screen at 10 µM
T3 construct: purchased NIMH PDSP (Psychoactive Drug Screening Program, Roth lab, Case Western Reserve)

[4] = molecular target: T4, H2 (Homo sapiens, UniProt P25021); test: PDSP receptor binding, H2; details: PDSP primary screen at 10 µM
T4 construct: purchased NIMH PDSP (Psychoactive Drug Screening Program, Roth lab, Case Western Reserve)

[5] = molecular target: T5, H3 (Homo sapiens, UniProt Q9Y5N1); test: PDSP receptor binding, H3; details: PDSP primary screen at 10 µM
T5 construct: purchased NIMH PDSP (Psychoactive Drug Screening Program, Roth lab, Case Western Reserve)

[6] = molecular target: T6, H4 (Homo sapiens, UniProt Q9H3N8); test: PDSP receptor binding, H4; details: PDSP primary screen at 10 µM
T6 construct: purchased NIMH PDSP (Psychoactive Drug Screening Program, Roth lab, Case Western Reserve)

[7] = test system: Imidaz oline; test: PDSP receptor binding, Imidazoline; details: PDSP primary screen at 10 µM
[8] = molecular target: KOR (Homo sapiens, UniProt P41145); test: PDSP receptor binding, KOR; details: Case Western Reserve University, read-out: KOR Ki (secondary binding)
[9] = molecular target: T7, M1 (Homo sapiens, UniProt P11229); test: PDSP receptor binding, M1; details: PDSP primary screen at 10 µM
T7 construct: purchased NIMH PDSP (Psychoactive Drug Screening Program, Roth lab, Case Western Reserve)

[10] = molecular target: T8, M2 (Homo sapiens, UniProt P08172); test: PDSP receptor binding, M2; details: PDSP primary screen at 10 µM
T8 construct: purchased NIMH PDSP (Psychoactive Drug Screening Program, Roth lab, Case Western Reserve)

[11] = molecular target: T9, M3 (Homo sapiens, UniProt P20309); test: PDSP receptor binding, M3; details: PDSP primary screen at 10 µM
T9 construct: purchased NIMH PDSP (Psychoactive Drug Screening Program, Roth lab, Case Western Reserve)

[12] = molecular target: T10, M4 (Homo sapiens, UniProt P08173); test: PDSP receptor binding, M4; details: PDSP primary screen at 10 µM
T10 construct: purchased NIMH PDSP (Psychoactive Drug Screening Program, Roth lab, Case Western Reserve)

[13] = molecular target: T11, M5 (Homo sapiens, UniProt P08912); test: PDSP receptor binding, M5; details: PDSP primary screen at 10 µM
T11 construct: purchased NIMH PDSP (Psychoactive Drug Screening Program, Roth lab, Case Western Reserve)

[14] = test system: MDR; test: PDSP receptor binding, MDR; details: PDSP primary screen at 10 µM
[15] = molecular target: T12, MOR (Homo sapiens, UniProt P35372); test: PDSP receptor binding, MOR; details: PDSP primary screen at 10 µM
T12 construct: purchased NIMH PDSP (Psychoactive Drug Screening Program, Roth lab, Case Western Reserve)

[16] = molecular target: T13, NET (Homo sapiens, UniProt P23975); test: PDSP receptor binding, NET; details: PDSP primary screen at 10 µM
T13 construct: purchased NIMH PDSP (Psychoactive Drug Screening Program, Roth lab, Case Western Reserve)

[17] = test system: NMDA; test: PDSP receptor binding, NMDA; details: PDSP primary screen at 10 µM
[18] = molecular target: T14, SERT (Homo sapiens, UniProt P31645); test: PDSP receptor binding, SERT; details: PDSP primary screen at 10 µM
T14 construct: purchased NIMH PDSP (Psychoactive Drug Screening Program, Roth lab, Case Western Reserve)

[19] = molecular target: T15, σ1 (Homo sapiens, UniProt Q99720); test: PDSP receptor binding, σ1; details: PDSP primary screen at 10 µM
T15 construct: purchased NIMH PDSP (Psychoactive Drug Screening Program, Roth lab, Case Western Reserve)

[20] = test system: σ2; test: PDSP receptor binding, σ2; details: PDSP primary screen at 10 µM
[21] = test system: mice; details: cited from earlier work
[22] = test system: mice; set-up: method as in earlier work; details: cited from earlier work
[23] = molecular target: α1β3γ2 GABAA/BzR (Homo sapiens, UniProt P14867+P18507); test: Competition binding to HEK cell membranes, α1β3γ2; set-up: expressed in transfected cells; details: Figure 5; read-out: Ki α1
[24] = molecular target: α2β3γ2 GABAA/BzR (Homo sapiens, UniProt P18507+P47869); test: Competition binding to HEK cell membranes, α2β3γ2; set-up: expressed in transfected cells; details: Figure 5; read-out: Ki α2
[25] = molecular target: α3β3γ2 GABAA/BzR (Homo sapiens, UniProt P18507+P34903); test: Competition binding to HEK cell membranes, α3β3γ2; set-up: expressed in transfected cells; details: Figure 5; read-out: Ki α3
[26] = molecular target: α5β3γ2 GABAA/BzR (Homo sapiens, UniProt P18507+P31644); test: Competition binding to HEK cell membranes, α5β3γ2; set-up: expressed in transfected cells; details: Figure 5; read-out: Ki α5
[27] = molecular target: α6β3γ2 GABAA/BzR (Homo sapiens, UniProt P18507+Q16445); test: Competition binding to HEK cell membranes, α6β3γ2; set-up: expressed in transfected cells; details: Figure 5; read-out: Ki α6

In the case of `CCc1ccc2c(c1)C(=O)N(C)Cc1c(C(=O)OCCCOC(=O)c3ncn4c3CN(C)C(=O)c3cc(CC)ccc3-4)ncn1-2` [XLi-356 (10), 1,3-Bis(8-ethyl-5,6-dihydro-5-methyl-6-oxo-4H-imidazo[1,5a][1,4]benzodiazepine-3-carboxy) propyl diester], the DAT binding [1] is reported as “∗ (“∗” indicates “primary missed” (<50% inhibition at 10 µM))”, the DOR binding [2] is reported as “∗ (“∗” indicates “primary missed” (<50% inhibition at 10 µM))” and the H1 binding [3] is reported as “∗ (“∗” indicates “primary missed” (<50% inhibition at 10 µM))”. For the same molecule, the H2 binding [4] was “∗ (“∗” indicates “primary missed” (<50% inhibition at 10 µM))”, the H3 binding [5] was “∗ (“∗” indicates “primary missed” (<50% inhibition at 10 µM))” and the H4 binding [6] was “∗ (“∗” indicates “primary missed” (<50% inhibition at 10 µM))”. The Imidaz oline binding [7] was “∗ (“∗” indicates “primary missed” (<50% inhibition at 10 µM))”, the Ki [8] was 6.12 µM and the M1 binding [9] was “∗ (“∗” indicates “primary missed” (<50% inhibition at 10 µM))”. The M2 binding [10] was “∗ (“∗” indicates “primary missed” (<50% inhibition at 10 µM))”, the M3 binding [11] was “∗ (“∗” indicates “primary missed” (<50% inhibition at 10 µM))” and the M4 binding [12] was “∗ (“∗” indicates “primary missed” (<50% inhibition at 10 µM))”. For the same molecule, the M5 binding [13] was “∗ (“∗” indicates “primary missed” (<50% inhibition at 10 µM))”, the MDR binding [14] was “∗ (“∗” indicates “primary missed” (<50% inhibition at 10 µM))” and the MOR binding [15] was “∗ (“∗” indicates “primary missed” (<50% inhibition at 10 µM))”. The NET binding [16] was “∗ (“∗” indicates “primary missed” (<50% inhibition at 10 µM))”, the NMDA binding [17] was “∗ (“∗” indicates “primary missed” (<50% inhibition at 10 µM))” and the SERT binding [18] was “∗ (“∗” indicates “primary missed” (<50% inhibition at 10 µM))”. The σ1 binding [19] was “∗ (“∗” indicates “primary missed” (<50% inhibition at 10 µM))”, the σ2 binding [20] was “∗ (“∗” indicates “primary missed” (<50% inhibition at 10 µM))” and the “freezing (contextual memory) after scopolamine” value ([21]; 10 mg/kg, scopolamine 1 mg/kg) was “attenuated the impairment of memory”. The “reversal of scopolamine induced memory deficits” value ([21]; mice) was “potently reverse scopolamine induced memory deficits”, the “audio cued fear conditioning” value [22] was “no activity; also recorded: not able to reverse” and the Ki [23] was 1.85 µM. It also gave a Ki [24] of 4.2 µM, a Ki [25] of 8.55 µM and a Ki [26] of 0.101 µM. For the same molecule, the Ki [27] was 5 µM.
